Experimental data from patent publication US20210301315A1, “METHODS FOR TREATING POLYMICROBIAL INFECTIONS” (priority 2017, published 2021).
“Also recorded” adds a separate entry of the source.

Key:
E. coli and K. oxytoca = test: P-AST species-pair interaction on antibiotic resistance (logistic regression, HSAP/UP); type: cell-based, Escherichia coli; Klebsiella oxytoca; conditions: E. coli and K. oxytoca together v. expected from each species alone (HSAP/UP)
Procedure: (§1) The Pooled Antibiotic Sensitivity Test (P-AST) is permitting the organisms identified to grow in the presence of antibiotics and measuring the minimum concentration of antibiotic to inhibit growth. Antibiotic susceptibility testing is performed when at least a single organism within a pool of organisms reaches a certain threshold, (e.g., at least 3,000 cells/ml, at least 5,000 cells/ml, at least 10,000 cells/ml, etc.) and can grow in the presence of the antibiotic in the assay within the time of testing. (Note: 10,000 cells/ml is equivalent to 10,000 CFU/ml.) The present invention is not limited to a 10,000 cells/mL threshold. These pools of organism(s) are inoculated into growth medium then placed onto an antibiotic laden “spec plate” that is then incubated and analyzed for growth. The breakpoints are derived from the CLSI breakpoints.
(§2) P-AST was performed by aliquoting 1 mL of patient urine specimen into a 1.7 mL microcentrifuge tube. After centrifugation, the supernatant was aspirated and discarded, leaving approximately 100 or 50 μL (minimum volume left above pellet created from centrifugation) of patient sample in the microcentrifuge tube. […] Optical density of samples was then read on a DensiCHEK plate reader. […] A spectrophotometer (plate reader) is used to measure optical density of the samples in wells of antibiotics and inoculum in order to determine if there is growth in a well. […]

[1] = system: bacterial organisms present in patient urine sample; test: Antibiotic Resistance (ABR) assay utilizing liquid growth medium; type: cell-based; conditions: for Blanked (OD reading): blanked with Na-Azide well; for Mean (OD reading): raw OD600 of well; for Result (Resistant/Sensitive): threshold OD600 of 0.065
Procedure: Urine samples suitable for processing with this assay are collected, transported, and stored using BD Vacutainer tubes or other suitable leak-proof sterile containers. Urine samples may be held at room temperature for 48 hours before test results are compromised.
Antibiotic stocks are stored at 2-8° C. and protected from direct sunlight. Prepared antibiotic stock solutions were aliquoted into a 96-deep well plate (ThermoFisher Scientific) to form a 50× Antibiotic Source Plate and then diluted 1:5 to form a 10× Antibiotic Source Plate, as shown in FIG. 12 where each well is identified by antibiotic name and concentration (μg/mL; 10× final concentration). […] One well was assigned sodium azide to ensure no bacterial growth would be observed in that well.
Twenty microliters of each antibiotic solution were aliquoted into the pre-determined wells of a 96-well microplate (VIS 96/F-PS, Eppendorf) from the 10× Antibiotic Source Plate to create ABR testing plates for inoculation. These ABR testing plates were allowed to sit for up to 24 hours before use at 2-8° C. in the dark.
At the time of testing, urine samples were centrifuged to concentrate any bacterial cells and then mixed with liquid Mueller-Hinton medium and incubated for 6-16 hours at 37° C. After this initial incubation, the sample is diluted to 0.5-0.6 McF in saline and then 500 μl of that suspension was added to […] of Mueller-Hinton medium. One-hundred and eighty microliters of the diluted sample is then aliquoted to each well of the ABR microplate already containing 10× antibiotic solution, bringing all of the antibiotics to the desired final concentration. The plate is then sealed and incubated for 12-16 hours at 37° C.
After incubation, the plate was removed from the incubator and carefully uncovered and the OD600 was determined for each appropriate well by spectrophotometer. Five separate measurements were taken of each well on a plate and the mean OD600 measurement calculated for each well.
Controls are depicted in Table 10.
The raw data was then “blanked” using the measurement obtained from the Na-Azide well, as depicted in Table 14.
To determine whether bacterial organisms present in the patient samples were resistant or sensitive to a particular antibiotic at a certain concentration, blanked OD readings were compared to a threshold OD600 of 0.065 (Table 15). An OD measurement greater than or equal to this threshold was designated Resistant (R) meaning bacterial organisms present in patient sample were resistant to that particular antibiotic at that certain concentration. Any OD measurement less than this threshold was designated Sensitive (S) meaning bacterial organisms present in patient sample were sensitive to that particular antibiotic at that certain concentration.

[2] = system: E. coli and S. agalactiae; test: P-AST species-pair interaction on antibiotic resistance (logistic regression, HSAP/UP); type: cell-based, Escherichia coli; Streptococcus agalactiae; conditions: E. coli and S. agalactiae together v. expected from each species alone (HSAP/UP)
Procedure: as §1
(§3) P-AST was performed by aliquoting 1 mL of patient urine specimen into a 1.7 mL microcentrifuge tube. After centrifugation, the supernatant was aspirated and discarded, leaving approximately 100 or 50 μL (minimum volume left above pellet created from centrifugation) of patient sample in the microcentrifuge tube. One mL of Mueller Hinton Growth Media was then aliquoted into the patient sample in the microcentrifuge tube and the tubes were incubated at 35° C. in a non-CO2 incubator for 6 hours. Non-inoculated liquid MH-media is incubated as the negative control to confirm the media used is not contaminated. Those samples that reached a minimum threshold of 10,000 cells/mL were then diluted by aliquoting 0.5 mL of sample into a 50 mL conical tube containing Mueller Hinton Growth Media (in this example, the dilution was 1:60, e.g., 500 μL was added to 29.5 mL). 96-well plates pre-loaded with antibiotics were then inoculated with diluted samples and incubated along with control plates for 12-16 hours at 35° C. in a single layer. Optical density of samples was then read on a DensiCHEK plate reader. The DensiCHEK instrument is used to measure the concentration of turbid samples considered positive because PCR-ID result was >=10,000 cells/mL. The turbid samples were diluted/normalized to the same concentration and then added to a volume of liquid, e.g., 29.5 mL of liquid MH-media. A spectrophotometer (plate reader) is used to measure optical density of the samples in wells of antibiotics and inoculum in order to determine if there is growth in a well. The present invention is not limited to a concentration of 10,000 cells/mL.
Interactions between pairs of bacterial species were investigated using a logistic regression model to predict resistance in the presence of specific bacterial species. Bacterial species that tested positive in at least 30 samples were considered in the regression model: these 16 species were A. schaalii, A. urinae, A. omnicolens, CoNS, C. riegelii, E. faecalis, E. coli, K. oxytoca, K. pneumoniae, M. morganii, P. mirabilis, P. aeruginosa, S. aureus, S. agalactiae, U. urealyticum, VGS. Backward stepwise model selection was performed on the model with all main effects and all pairwise interactions using an enter significance level of α=0.10 and an exit significance level of α=0.05 to obtain the best fitting model. This model was used to predict resistance rates when a specific organism was present or when a specific pair of organisms were present.
Using the logistic regression model described above, the resistance rate for a pair of species was compared to the resistance rates for each species alone. […]

[3] = system: Coagulase-negative Staphylococcus (CoNS) and S. agalactiae; conditions: CoNS and S. agalactiae together v. expected from each species alone (HSAP/UP)
[4] = system: bacteria detected in patient urine specimens; test: Pooled Antibiotic Susceptibility Testing (P-AST) of urine specimens, polymicrobial v. monomicrobial (logistic regression); type: cell-based; conditions: urine specimens, 95% confidence interval in parentheses
[5] = system: Coagulase-negative Staphylococcus (CoNS) and K. pneumoniae; test: P-AST species-pair interaction on antibiotic resistance (logistic regression, HSAP/UP); type: cell-based, Coagulase negative staphylococci; Klebsiella pneumoniae; conditions: CoNS and K. pneumoniae together v. expected from each species alone (HSAP/UP)
Procedure: as §1, §3
Interactions between pairs of bacterial species were investigated using a logistic regression model to predict resistance in the presence of specific bacterial species. […]

[6] = system: Coagulase-negative Staphylococcus (CoNS) and E. faecalis; test: as above; type: cell-based, Coagulase negative staphylococci; Enterococcus faecalis; conditions: CoNS and E. faecalis together v. expected from each species alone (HSAP/UP)
Procedure: as §1, §2

[7] = antibiotic 1 μg/mL, liquid medium
[8] = antibiotic 2 μg/mL, liquid medium
[9] = antibiotic 4 μg/mL, liquid medium
[10] = antibiotic 8 μg/mL, liquid medium
[11] = antibiotic 16 μg/mL, liquid medium
[12] = antibiotic 32 μg/mL, liquid medium

**Q.** Which “change in antibiotic resistance of the pair of organisms” value (“change in antibiotic resistance” for short) (E. coli and K. oxytoca) does the source give for `CO/N=C(\C(=O)N[C@@H]1C(=O)N2C(C(=O)[O-])=C(C[N+]3(C)CCCC3)CS[C@H]12)c1csc(N)n1` [Cefepime, cefepime] here?
**A.** Its value is “decrease in resistance; also recorded: decreased odds of resistance”.

**Q.** What about the “Blanked (OD600 minus Na-Azide well)” value [1, 7] of the same compound?
**A.** The value was 0.1959.

**Q.** What about the “Mean (OD600)” value [1, 7] of the same compound?
**A.** The value was 0.2416.

**Q.** What about the “Blanked (OD600 minus Na-Azide well)” value [1, 8] of the same compound?
**A.** Its value is 0.1970.

**Q.** And the “Mean (OD600)” value [1, 8]?
**A.** Its value is 0.2427.

**Q.** What about the “Blanked (OD600 minus Na-Azide well)” value [1, 9] of the same compound?
**A.** Its value is 0.1960.

**Q.** And the “Mean (OD600)” value [1, 9]?
**A.** Its value is 0.2417.

**Q.** What about the “Blanked (OD600 minus Na-Azide well)” value [1, 10] of the same compound?
**A.** Its value is 0.1947.

**Q.** What about the “Mean (OD600)” value [1, 10] of the same compound?
**A.** The value was 0.2404.

**Q.** What about the “Blanked (OD600 minus Na-Azide well)” value [1, 11] of the same compound?
**A.** Its value is 0.1866.

**Q.** What about the “Mean (OD600)” value [1, 11] of the same compound?
**A.** Its value is 0.2323.

**Q.** What about the “Blanked (OD600 minus Na-Azide well)” value [1, 12] of the same compound?
**A.** The value was 0.1824.

**Q.** What about the “Mean (OD600)” value [1, 12] of the same compound?
**A.** The value was 0.2281.

**Q.** And the “change in antibiotic resistance” value [2]?
**A.** The value was “decrease in resistance; also recorded: decreased odds of resistance”.

**Q.** For gentamicin, which “change in antibiotic resistance” value [3] is on record?
**A.** Its value is “decrease in resistance; also recorded: decreased odds of resistance”.

**Q.** What about the “Odds Ratio of Resistance Polymicrobial v. Monomicrobial” value [4] of the same compound?
**A.** The value was 1.17 (0.90, 1.51).

**Q.** And the “Odds Ratio of Resistance for Each Additional Species” value [4]?
**A.** The value was 1.01 (0.92, 1.11).

**Q.** And the “Blanked (OD600 minus Na-Azide well)” value [1, 9]?
**A.** The value was 0.0158.

**Q.** And the “Mean (OD600)” value [1, 9]?
**A.** Its value is 0.0615.

**Q.** And the “Blanked (OD600 minus Na-Azide well)” value [1, 11]?
**A.** Its value is −0.0031.

**Q.** And the “Mean (OD600)” value [1, 11]?
**A.** The value was 0.0426.

**Q.** And the “Blanked (OD reading)” value ([1]; antibiotic concentration 4)?
**A.** The value was 0.0158.

**Q.** And the “Mean (OD reading)” value ([1]; antibiotic concentration 4)?
**A.** Its value is 0.0615.

**Q.** What about the “Result (Resistant/Sensitive)” value ([1]; antibiotic concentration 4) of the same compound?
**A.** The value was “S (Any OD measurement less than this threshold was designated Sensitive (S))”.

**Q.** And the “Blanked (OD reading)” value ([1]; antibiotic concentration 16)?
**A.** The value was −0.0031.

**Q.** What about the “Mean (OD reading)” value ([1]; antibiotic concentration 16) of the same compound?
**A.** The value was 0.0426.

**Q.** And the “Result (Resistant/Sensitive)” value ([1]; antibiotic concentration 16)?
**A.** The value was “S (Any OD measurement less than this threshold was designated Sensitive (S))”.

**Q.** And the “overall sensitivity of the bacteria in the sample to the antibiotic (in words)” value ([1]; liquid medium, Example 4 sample)?
**A.** Its value is “sensitive”.

**Q.** And the “change in antibiotic resistance” value [5]?
**A.** Its value is “decrease in resistance; also recorded: decreased odds of resistance”.

**Q.** What about the “change in antibiotic resistance” value [6] of the same compound?
**A.** The value was “decrease in resistance; also recorded: decreased odds of resistance”.
